One may read the pEC50 as the EC50 on a negative log10 scale, so that one unit is a factor of ten.

pEC50: −log10 of the molar value. No end group written: not given here. Bounds are passed on as bounds.

The values that follow come from patent US6972319B1, “Pituitary adenylate cyclase activating peptide (PACAP)receptor 3 (R3) agonists and their pharmacological methods of use” (priority 1999, dated 2005).

For assay [1], the target named is T1, PACAP-R2 (Homo sapiens, UniProt P32241).
T1 construct: expressed in transfected cells; host or cells: CHO cells
T1 sequence (P32241 31-457): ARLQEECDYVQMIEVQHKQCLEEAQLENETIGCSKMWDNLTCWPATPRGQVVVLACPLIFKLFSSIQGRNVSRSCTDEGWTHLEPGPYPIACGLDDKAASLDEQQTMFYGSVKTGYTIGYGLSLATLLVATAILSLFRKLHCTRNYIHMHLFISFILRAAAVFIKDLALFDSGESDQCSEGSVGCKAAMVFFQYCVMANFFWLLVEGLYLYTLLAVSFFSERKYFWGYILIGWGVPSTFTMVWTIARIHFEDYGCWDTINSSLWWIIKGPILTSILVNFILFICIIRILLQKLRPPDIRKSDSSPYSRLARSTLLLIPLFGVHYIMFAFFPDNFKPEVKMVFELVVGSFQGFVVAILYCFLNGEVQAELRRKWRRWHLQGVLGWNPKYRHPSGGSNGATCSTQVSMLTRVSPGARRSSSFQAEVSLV
The assay is described as follows: Cyclic AMP SPA on CHO cells transfected with PACAP-R2. The assay is classed as cell-based. The conditions noted are these: cAMP SPA, concentration at which 50% of maximum PACAP27 activity is achieved, NA = no detectable activities, read-out: R2 EC50. Put shortly:
(§1)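 CHO cells expressing human PACAP-R2 or PACAP-R3 were exposed to peptide for 15 min at 37 °C with 100 μM IBMX and protease inhibitors. cAMP was measured by SPA. EC50 is the concentration giving 50% of maximal PACAP27 activity, and R3 selectivity is EC50(R2)/EC50(R3).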

The target in assay [2] is T2, PACAP-R3 (Homo sapiens, UniProt P41587).
T2 sequence (P41587 24-438): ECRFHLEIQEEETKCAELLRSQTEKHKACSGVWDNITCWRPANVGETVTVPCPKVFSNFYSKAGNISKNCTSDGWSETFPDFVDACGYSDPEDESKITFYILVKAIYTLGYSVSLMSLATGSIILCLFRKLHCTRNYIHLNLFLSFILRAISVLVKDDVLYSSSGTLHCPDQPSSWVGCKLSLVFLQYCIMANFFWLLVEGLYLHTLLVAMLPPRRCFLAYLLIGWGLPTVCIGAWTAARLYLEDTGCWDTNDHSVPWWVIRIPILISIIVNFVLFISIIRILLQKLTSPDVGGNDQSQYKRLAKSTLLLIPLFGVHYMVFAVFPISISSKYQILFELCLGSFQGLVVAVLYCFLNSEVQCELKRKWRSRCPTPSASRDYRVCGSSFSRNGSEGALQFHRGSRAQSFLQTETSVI
The assay is described as follows: Cyclic AMP SPA on CHO cells expressing PACAP R3. The class given is cell-based. On the set-up: expressed in transfected cells; host or cells: CHO cells (Geneticin selection). The conditions noted are these: for pEC50: cAMP SPA, CHO cells transfected with PACAP-R3, concentration at which 50% of maximum PACAP27 activity is achieved, NA = no detectable activities, read-out: R3 EC50; for R3 Selectivity: ratio of EC50 at R2 versus EC50 at R3. Summed up: as §1

As to “HSDAVFTDNYTRLRKQMASKKYLNSIKNRI [rR3P178]”, the pEC50 in assay [1] is 7.10; in assay [2], 9.12. The “R3 Selectivity” value in assay [2] was 110.
On to HSDGIFTDSYSRYRKQMAVKKKLAAVL-NH2 [PAC22], for which the pEC50 was 8.70 in assay [1] and 7.82 in assay [2]. In assay [2], the “R3 Selectivity” value was determined as 0.1.
In the case of “HSDAVFTDNYTRLRKQVAVKKYLQSILKKRY [Peptide R3P87]”, the pEC50 in assay [1] was 9.22. In assay [2], the pEC50 was 9.70 and the “R3 Selectivity” value was 3.
Regarding “HSDAVFTDNYTRLRKQMAFKKYLNSIKNKR [Peptide R3P100]”, the negative-log EC50 (pEC50) in assay [1] is 8.00. For the same substance, in assay [2], the pEC50 is 9.52 and the “R3 Selectivity” value is recorded as 30.
“HSDAVFTDNYTRLRKQLAAKKYLNDILNGGT [Peptide R3P27]”: the negative-log EC50 (pEC50) in assay [1] is 8.19. Moreover, in assay [2], the pEC50 was 9.10 and the “R3 Selectivity” value came to 8.
On to “HSDAVFTDNYTRLRKQMAAKKYLNSIRNRI [rR3P189]”, for which the negative-log EC50 (pEC50) in assay [1] was 8.89. Also, in assay [2], the pEC50 is 10.40 and the “R3 Selectivity” value was 30.
On to “HSDAVFTDNYTRLRKQLAAKKYLNSIKNGGT [Peptide R3P30]”, for which the pEC50 in assay [1] is 7.70. Further, in assay [2], the pEC50 is 9.40 and the “R3 Selectivity” value stood at 50.
With “HSDAVFTDNYTRLRKQMAKKKYLNSIPNRI [rR3P181]”, the negative-log EC50 (pEC50) was 6.55 in assay [1] and 8.29 in assay [2]. In assay [2], the “R3 Selectivity” value is given as 50.
Consider “HSDAVFTDNYTRLRKQMAWKKYLNSIKNKR [Peptide R3P114]”, for which the negative-log EC50 (pEC50) is 7.70 in assay [1] and 8.70 in assay [2]. In addition, the “R3 Selectivity” value in assay [2] is 10.
Take “HSDAVFTDNYTRLRKQMAAKKYLNSIKKGGT [Peptide R3P26]”: the pEC50 in assay [1] is under 7.00; in assay [2], 9.26. For the same substance, the “R3 Selectivity” value in assay [2] was over 180.
For the substance “H-HSDGIFTDSYSEYRKQMAVKKYLAAVL-NH2 [PAC12]”, the pEC50 in assay [1] is 6.82. Moreover, in assay [2], the pEC50 was 8.52 and the “R3 Selectivity” value worked out at 50.
Taken in the same sequence, the figures for “HSDAVFTDNYTRLRKQMAAKKYLNSIKNKR [Peptide R3P65]” were 7.10, 9.22 and 130.
The matching figures for HSDGIFTKSYSRYRKQMAVKKYLAAVL-NH2 [PAC8]: 7.37, 7.33 and 1.
As for “H-HSDAVFTDNYTRLRKQMAAKKYLNDIKKGGT [Peptide R3P20]”, the pEC50 in assay [1] is 6.48; in assay [2] it was 8.85. Besides, in assay [2], the “R3 Selectivity” value is 230.
The matching figures for “HSDAVFTDNYTRLRKQMASKKYLNSIRNRI [rR3P193]”: 6.70, 8.72 and 110.
For “HSDAVFTDNYTRLRKQVAAKKYLNSIKK [Peptide R3P62]”, the pEC50 in assay [1] is 6.74. In assay [2], the pEC50 is 8.74 and the “R3 Selectivity” value is reported as 100.
The matching figures for “HSDAVFTDNYTRLRKQMAAKKYLNSIKNDR [Peptide R3P136]”: 7.70, 9.52 and 70.
For “HSDAVFTDNYTRLRKQMAGKKYLNSIPNRI [rR3P180]”, the negative-log EC50 (pEC50) in assay [1] was under 7.00; in assay [2], 8.17. For the same substance, in assay [2], the “R3 Selectivity” value was over 20.
The matching figures for “HSDAVFTDNYTRLRKQMAAKKYLNSIKNMR [Peptide R3P143]”: 8.22, 9.70 and 30.
Taken in the same sequence, the figures for “HSDAVFTDNYTRLRKQIAAKKYLQTIKK [Peptide R3P61]” were 6.96, 9.10 and 140.
“HSDAVFTDNYTRLRKQMAVKKYLNSIKKK [Peptide R3P58]”: the pEC50 in assay [1] was 7.26. Moreover, in assay [2], the pEC50 is 9.49 and the “R3 Selectivity” value came out at 170.
The matching figures for “HSDAVFTDNYTRLRKQLAAKKYLNDIKKQ [Peptide R3P34]”: under 7.00, 8.85 and over 70.
For the substance “H-HSDGIFTDSYSRYRKQLAAKKYLADVKKGGT [Peptide R3P37]”, the pEC50 in assay [1] is 7.15. In addition, in assay [2], the pEC50 is 8.40 and the “R3 Selectivity” value was 18.
As for “HSDAVFTDNYTRLRKQMAEKKYLNSIKNKR [Peptide R3P99]”, the pEC50 in assay [1] is 7.40; in assay [2] it was 9.00. Further, the “R3 Selectivity” value in assay [2] amounted to 40.
The matching figures for “H-HSDAVFTDNYTRLRKQMAAKKYLNSIDNKR [Peptide R3P118]”: 7.82, 9.30 and 30.
Taken in the same sequence, the figures for “HSDAVFTDNYTRLRKQMAAKKYLNSIENKR [Peptide R3P119]” were 7.82, 9.30 and 30.
“HSDAVFTDNYTRLRKQMAAKKYLNSIKNRI [rR3P174]”: the pEC50 in assay [1] is 7.74. For the same substance, in assay [2], the pEC50 was 9.70 and the “R3 Selectivity” value is reported as 90.
On to “HSDAVFTDNYTRLRKQLAVKKYLNSIKKGGT [Peptide R3P25]”, for which the negative-log EC50 (pEC50) in assay [1] is 7.82. Moreover, in assay [2], the pEC50 is 9.15 and the “R3 Selectivity” value is given as 20.
Take HSDGIFTDSYKRYRKQMAVKKYLAAVL-NH2 [PAC11]: the negative-log EC50 (pEC50) in assay [1] was 8.00. Besides, in assay [2], the negative-log EC50 (pEC50) is 6.85 and the “R3 Selectivity” value is reported as 0.1.
As for “HSDAVFTDNYTRLRKQLAAKKYLNSIKKGGT [Peptide R3P22]”, the negative logarithm of the EC50 (pEC50) in assay [1] is 7.42; in assay [2], 8.80. The “R3 Selectivity” value in assay [2] was 24.
As to “H-HSDAVFTDNYTRLRKQMAAKKYLNSIKNKD [Peptide R3P155]”, the pEC50 in assay [1] was 7.40. In addition, in assay [2], the pEC50 is 9.40 and the “R3 Selectivity” value is 100.
Taken in the same sequence, the figures for “H-HSDAVFTDNYTRLRKQMAAKKYLNSIKNKH [Peptide R3P159]” were 6.70, 9.30 and 400.
Turning to ESDGIFTDSYSRYRKQMAVKKYLAAVL-NH2 [PAC1], the pEC50 in assay [1] was 6.01. Further, in assay [2], the negative logarithm of the EC50 (pEC50) was 8.00 and the “R3 Selectivity” value amounted to 97.
With “H-HSDAVFTDNYTRLRKQLAAKKYLNDIKKNQ [Peptide R3P35]”, the pEC50 in assay [1] is under 7.00. In addition, in assay [2], the negative-log EC50 (pEC50) is 8.59 and the “R3 Selectivity” value is over 40.
For “HSDAVFTDNYTRLRKQMAAKKYLNSIKNTR [Peptide R3P149]”, the pEC50 is 7.40 in assay [1] and 9.30 in assay [2]. Moreover, the “R3 Selectivity” value in assay [2] worked out at 80.
Regarding “HSDAVFTDNYTRLRKQVAAKKYLQSIKNK [Peptide R3P86]”, in assay [1], the negative logarithm of the EC50 (pEC50) was 7.05. For the same substance, in assay [2], the pEC50 is 9.10 and the “R3 Selectivity” value turned out to be 110.
For HSDGIFTDSYSRYRKQMAVKKYLAAKL-NH2 [PAC26], the negative logarithm of the EC50 (pEC50) was 9.60 in assay [1] and 9.52 in assay [2]. Moreover, the “R3 Selectivity” value in assay [2] is 1.
Consider “HSDAVFTDNYTRLRKQMAAKKYLNSIKNKT [Peptide R3P168]”, for which the pEC50 in assay [1] was 7.22; in assay [2], 9.70. In assay [2], the “R3 Selectivity” value is given as 300.
For “HSDAVFTDNYTRLRKQLAAKKYLNDIKKGG [Peptide R3P31]”, the pEC50 in assay [1] is under 7.00. In assay [2], the pEC50 is 9.52 and the “R3 Selectivity” value was over 300.
